In patent publication US12351571B2, “Substituted quinoxaline compounds as inhibitors of FGFR tyrosine kinases” (ARRAY BIOPHARMA INC., priority 2018, dated 2025):

Legend:
FGFR3 [1] = biological target: T1, FGFR3 (Homo sapiens (Human), UniProt P22607); experiment: FGFR Enzyme Activity Assay (LanthaScreen TR-FRET), FGFR3; assay type: biochemical; conditions: 25 μM ATP, 10 minute incubation; read-out: FGFR3 Enz FRET IC50
Procedure: FGFR3 kinase activity was measured by the Invitrogen LanthaScreen™ Assay technology which directly measures the amount of substrate phosphorylation by TR-FRET using a flourescently-labeled peptide and Europium-labeled antibody. Briefly, 750 pM N-terminal GST-HIS6 fusion protein with a 3C cleavage site recombinant human FGFR3 (amino acids R397-T806) (ProQinase Cat. No. 1068-0000-1) was incubated with 100 nM Alexa Fluor® 647-Poly-GT Peptide Substrate (Life Technologies Cat. No. PV5836) and 25 μM ATP along with test compound in a buffer consisting of 250 mM HEPES, 25 mM MgCl2, 0.05% TritonX-100, pH 7.5, and 2% DMSO. Compounds were typically prepared in a threefold serial dilution in DMSO and added to the assay to give the appropriate final concentration. After a 10 minute incubation at 22° C., an equal volume of 2 nM LanthaScreen® Eu-PY20 Antibody (Life Technologies Cat. No. PV5691) and 10 mM EDTA were added to quench the kinase reaction and start the detection reaction. After an additional 60 minute incubation at 22° C., the reaction was measured using a PerkinElmer EnVision multimode plate reader via TR-FRET dual wavelength detection, and the percent of control (POC) calculated using a ratiometric emission factor. 100 POC was determined using no test compounds and 0 POC was determined using no enzyme. The POC values were fit to a 4-parameter logistic curve as a function of the concentration of the compound, and the IC50 value is the point where the curve crosses 50 POC.
Target sequence in this assay (P22607 397-806): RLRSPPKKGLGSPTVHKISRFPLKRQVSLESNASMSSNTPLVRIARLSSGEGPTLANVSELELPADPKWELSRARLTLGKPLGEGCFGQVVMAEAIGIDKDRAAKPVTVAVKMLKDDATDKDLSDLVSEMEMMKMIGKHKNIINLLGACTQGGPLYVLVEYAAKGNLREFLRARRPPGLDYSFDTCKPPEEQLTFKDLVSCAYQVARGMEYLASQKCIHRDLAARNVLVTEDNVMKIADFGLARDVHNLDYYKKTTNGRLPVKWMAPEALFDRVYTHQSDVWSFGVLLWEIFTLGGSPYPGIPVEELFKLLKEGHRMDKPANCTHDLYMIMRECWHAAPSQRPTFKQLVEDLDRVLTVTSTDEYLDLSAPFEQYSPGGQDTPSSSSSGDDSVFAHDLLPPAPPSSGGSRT

FGFR1 = FGFR1 (Homo sapiens (Human), UniProt P11362); experiment: LC/MS FGFR1 kobs assay (covalent modification); assay type: biochemical; conditions: 500 nM FGFR1, 3 μM compound
FGFR1, sequence (P11362 458-765): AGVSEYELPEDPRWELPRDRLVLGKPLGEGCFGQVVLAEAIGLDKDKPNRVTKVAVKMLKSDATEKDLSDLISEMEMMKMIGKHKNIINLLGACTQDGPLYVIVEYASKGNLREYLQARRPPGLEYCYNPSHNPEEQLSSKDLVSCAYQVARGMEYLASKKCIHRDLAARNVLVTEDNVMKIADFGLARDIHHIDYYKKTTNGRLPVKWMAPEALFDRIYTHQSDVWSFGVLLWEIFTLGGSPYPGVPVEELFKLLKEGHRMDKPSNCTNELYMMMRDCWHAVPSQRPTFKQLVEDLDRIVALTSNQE
Procedure: (§1) The LC/MS FGFR1 and FGFR3 kobs assays were conducted as follows. 500 nM FGFR1 (Array BioPharma construct p1702; SEQ ID NO: 1, amino acids 458-765) or FGFR3 (Array BioPharma construct p1700; SEQ ID NO: 5, amino acids 449-759) were incubated with 3 μM compound in 25 mM HEPES (4-(2-hydroxyethyl)-1-piperazineethanesulfonic acid), pH 7.4, 5 mM MgCl2, 150 mM NaCl, 0.5 mM TCEP (tris(2-carboxyethyl) phosphine), and 2% DMSO in a total volume of 20 μL. At each time point, the reaction was quenched with 20 μL of 0.4% formic acid. The extent of protein modification by each compound was determined by LC/MS on an Agilent Technologies 6520 Q-TOF LC/MS. Protein signals were then automatically deconvoluted using Agilent Masshunter software. Deconvoluted mass signals were exported to Tibco Spotfire data analysis program for further processing and normalization.
(§2) Data analysis included five steps. First, the signals for the “DMSO Controls” were analyzed to determine the percent of signal associated with unmodified FGFR1 or FGFR3 at each time point. Next, the percent of the signal associated with the covalent modification was determined. Third, the average nonmodified “DMSO Control” signal was used to normalize the modified protein signals at each time point. The percent of unmodified protein was fit to an exponential decay model where A0 is the Percent Unmodified at the start of the reaction, and kobs is the observed rate constant over the time period.

FGFR3 [2] = biological target: T1, FGFR3; experiment: LC/MS FGFR3 kobs assay (covalent modification); assay type: biochemical; conditions: 500 nM FGFR3, 3 μM compound
Procedure: as §1, §2
Target sequence in this assay (P22607 449-759): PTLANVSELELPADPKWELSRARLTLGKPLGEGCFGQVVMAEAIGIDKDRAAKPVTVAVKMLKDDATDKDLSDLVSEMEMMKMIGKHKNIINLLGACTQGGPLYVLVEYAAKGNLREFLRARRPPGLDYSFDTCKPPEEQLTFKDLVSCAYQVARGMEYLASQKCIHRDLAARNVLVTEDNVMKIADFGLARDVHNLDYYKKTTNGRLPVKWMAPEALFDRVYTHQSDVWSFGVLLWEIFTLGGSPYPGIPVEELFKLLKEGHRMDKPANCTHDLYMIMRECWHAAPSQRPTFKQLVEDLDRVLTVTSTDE

human wild type FGFR1 = human wild type FGFR1 (Homo sapiens (Human), UniProt P11362); experiment: FGFR1 pERK Cell Assay; assay type: cell-based; conditions: HEK-293 cells, 1 hour compound, 100 ng/ml human FGF-acidic; maximum concentration 5 μM
human wild type FGFR1, sequence (P11362 22-822): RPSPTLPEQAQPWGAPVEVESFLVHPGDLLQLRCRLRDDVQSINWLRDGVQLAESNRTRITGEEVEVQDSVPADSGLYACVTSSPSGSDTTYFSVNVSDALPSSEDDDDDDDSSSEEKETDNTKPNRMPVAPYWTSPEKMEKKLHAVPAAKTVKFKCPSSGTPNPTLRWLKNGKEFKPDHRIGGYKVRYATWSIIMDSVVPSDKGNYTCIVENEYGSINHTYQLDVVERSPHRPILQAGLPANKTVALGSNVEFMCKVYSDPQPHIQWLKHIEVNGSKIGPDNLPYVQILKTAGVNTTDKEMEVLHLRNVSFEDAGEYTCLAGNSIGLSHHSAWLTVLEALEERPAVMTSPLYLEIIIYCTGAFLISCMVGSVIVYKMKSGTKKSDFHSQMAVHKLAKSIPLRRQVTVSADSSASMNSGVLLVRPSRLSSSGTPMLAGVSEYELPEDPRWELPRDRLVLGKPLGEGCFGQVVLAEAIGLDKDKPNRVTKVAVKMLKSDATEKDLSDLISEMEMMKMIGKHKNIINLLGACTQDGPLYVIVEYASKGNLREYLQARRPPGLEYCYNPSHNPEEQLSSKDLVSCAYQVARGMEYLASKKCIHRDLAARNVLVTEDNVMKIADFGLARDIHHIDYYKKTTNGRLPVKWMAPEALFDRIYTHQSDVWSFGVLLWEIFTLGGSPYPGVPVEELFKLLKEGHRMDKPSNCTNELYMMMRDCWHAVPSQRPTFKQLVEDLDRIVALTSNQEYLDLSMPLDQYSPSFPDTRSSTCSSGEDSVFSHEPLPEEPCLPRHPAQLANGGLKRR
Procedure: (§3) HEK-293 cells transfected with doxycycline(dox)-inducible human wild type FGFR1 (SEQ ID NO: 1) were plated in a collagen or poly-D-lysine coated 96 well flat bottom plates at 4×10^5 cells/well in complete Dulbecco's Modified Eagle Medium (DMEM) containing 10% FBS and 1 μg/ml doxycycline and allowed to attach for 24 h at 37° C., 5% CO2. Cells were treated with compound using 1:3 serial dilutions with a maximum final concentration of 5 μM. Compound was incubated on cells for 1 hour at 37° C., 5% CO2. Cells were then stimulated with a final concentration of 100 ng/ml human FGF-acidic (R&D Systems Cat number 232-FA/CF) for 5 minutes at 37° C., 5% CO2. Medium was removed, and cells were lysed with lysis buffer containing phosphatase and protease inhibitors. Phospho ERK1/2 was measured using the Meso Scale Discovery sandwich assay (Meso Scale Discovery cat. no. K151DWD). The assay captures phospho ERK1/2 and detects with a sulfo-tagged total ERK1/2 antibody. The chemiluminescent signal was read on the Sector Imager Plate reader. 100 POC was determined using no test compound and 0 POC was determined using a control compound. The POC values were fit to a 4-parameter logistic curve as a function of the concentration of the compound, and the IC50 value is the point where the curve crosses 50 POC.

human wild type FGFR3 = human wild type FGFR3 (Homo sapiens (Human), UniProt P22607); experiment: FGFR3 pERK Cell Assay; assay type: cell-based; conditions: HEK-293 cells, 1 hour compound, 100 ng/ml human FGF-acidic; maximum concentration 5 μM
human wild type FGFR3, sequence (P22607 23-806): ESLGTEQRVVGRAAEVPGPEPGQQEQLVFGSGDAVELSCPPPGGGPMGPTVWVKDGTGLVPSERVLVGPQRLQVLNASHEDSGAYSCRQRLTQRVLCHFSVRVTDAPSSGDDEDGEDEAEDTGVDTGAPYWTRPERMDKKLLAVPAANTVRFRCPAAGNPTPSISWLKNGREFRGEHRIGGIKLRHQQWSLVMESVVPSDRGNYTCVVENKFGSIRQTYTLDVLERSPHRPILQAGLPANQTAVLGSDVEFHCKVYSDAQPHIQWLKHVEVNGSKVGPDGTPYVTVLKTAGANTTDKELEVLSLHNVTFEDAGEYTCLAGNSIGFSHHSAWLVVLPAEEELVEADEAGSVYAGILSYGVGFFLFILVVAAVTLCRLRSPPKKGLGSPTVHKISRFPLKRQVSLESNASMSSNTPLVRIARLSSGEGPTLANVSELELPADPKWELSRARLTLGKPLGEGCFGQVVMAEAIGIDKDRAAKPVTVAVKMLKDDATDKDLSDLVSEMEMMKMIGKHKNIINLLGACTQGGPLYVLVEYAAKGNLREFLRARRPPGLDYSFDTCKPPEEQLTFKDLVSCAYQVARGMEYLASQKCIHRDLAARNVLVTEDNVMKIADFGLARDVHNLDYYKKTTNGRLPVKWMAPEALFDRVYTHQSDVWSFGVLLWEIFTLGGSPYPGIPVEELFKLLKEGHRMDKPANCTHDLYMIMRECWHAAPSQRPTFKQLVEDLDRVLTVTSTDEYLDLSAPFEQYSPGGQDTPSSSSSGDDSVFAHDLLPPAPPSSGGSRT
Procedure: as §3, with “with dox-inducible” for “with doxycycline(dox)-inducible”, “type FGFR3” for “type FGFR1”, “NO: 5)” for “NO: 1)”, “complete DMEM medium” for “complete Dulbecco's Modified Eagle Medium (DMEM)”, “test compounds” for “test compound”

Row | Structure (SMILES) | IC50 (FGFR3 [1]) | FGFR1 Enz kobs (FGFR1) | FGFR3 Enz kobs (FGFR3 [2]) | IC50 (human wild type FGFR1) | IC50 (human wild type FGFR3)
1 | C=CC(=O)N1CC(F)(C(=O)N2CCN(c3cc(C)c(-c4cnc5ccc(Nc6cc(OC)cc(OC)c6)cc5n4)cn3)CC2)C1 [Example 15, 1-(3-(4-(5-(7-((3,5-dimethoxyphenyl)amino)-quinoxalin-2-yl)-4-methylpyridin-2-yl)-piperazine-1-carbonyl)-3-fluoroazetidin-1-yl)prop-2-en-1-one] | 5000 nM | 0.00154 min⁻¹ | 0.0172 min⁻¹ | ≥ 5000 nM | 528 nM
2 | COc1cc(Nc2ccc3ncc(-c4ccc(N5CCN(C(=O)C6(F)CN(C(=O)/C=C/CN(C)C)C6)CC5)nc4)nc3c2)cc(OC)c1 [Example 7, (E)-1-(3-(4-(5-(7-((3,5-dimethoxyphenyl)amino)-quinoxalin-2-yl)pyridin-2-yl)piperazine-1-carbonyl)-3-fluoroazetidin-1-yl)-4-(dimethylamino)but-2-en-1-one] | 277 nM | 0.00659 min⁻¹ | 0.1309 min⁻¹ | 1530 nM | 77 nM
3 | C=CC(=O)N1CC(F)(C(=O)N2CCN(c3ccc(-c4cnc5ccc(Nc6cc(OC)cc(OC)c6)cc5n4)cn3)CC2)C1 [Example 8, 1-(3-(4-(5-(7-((3,5-dimethoxyphenyl)amino)-quinoxalin-2-yl)pyridin-2-yl)piperazine-1-carbonyl)-3-fluoroazetidin-1-yl)-prop-2-en-1-one] | 631 nM | 0.00384 min⁻¹ | 0.06319 min⁻¹ | 1140 nM | 154 nM
4 | C=CC(=O)N1CC(C(=O)N2CCN(c3ccc(-c4cnc5ccc(Nc6cc(OC)cc(OC)c6)cc5n4)cn3)CC2)C1 [Example 5, 1-(3-(4-(5-(7-((3,5-dimethoxyphenyl)amino)-quinoxalin-2-yl)pyridin-2-yl)piperazine-1-carbonyl)azetidin-1-yl)-prop-2-en-1-one] | 272 nM | 0.0011 min⁻¹ | 0.01486 min⁻¹ | 2690 nM | 317 nM

These reach a lower IC50 (FGFR3 [1]). Values come first.

Row | IC50 (FGFR3 [1]) | FGFR1 Enz kobs (FGFR1) | FGFR3 Enz kobs (FGFR3 [2]) | IC50 (human wild type FGFR1) | IC50 (human wild type FGFR3) | Structure (SMILES)
5 | 40 nM | 0.0025 min⁻¹ | 0.01671 min⁻¹ | 206 nM | 25 nM | C=CC(=O)N1CC(CN2CCC(n3cc(-c4cnc5ccc(Nc6cc(OC)cc(OC)c6)cc5n4)cn3)CC2)(OC)C1 [Example 29, 1-(3-((4-(4-(7-((3,5-dimethoxyphenyl)amino)quinoxalin-2-yl)-1H-pyrazol-1-yl)piperidin-1-yl)methyl)-3-methoxyazetidin-1-yl)prop-2-en-1-one]
6 | 18 nM | 0.00151 min⁻¹ | 0.01232 min⁻¹ | 3000 nM | 397 nM | C=CC(=O)N1CC(C(=O)N2CC(n3cc(-c4cnc5ccc(Nc6cc(OC)cc(OC)c6)cc5n4)cn3)C2)C1 [Example 16, 1-(3-(3-(4-(7-((3,5-dimethoxyphenyl)amino)-quinoxalin-2-yl)-1H-pyrazol-1-yl)azetidine-1-carbonyl)azetidin-1-yl)-prop-2-en-1-one]
7 | 14 nM | 0.00288 min⁻¹ | 0.01414 min⁻¹ | 1650 nM | 153 nM | C=CC(=O)N1CC(O)(C(=O)N2CCC(n3cc(-c4cnc5ccc(Nc6cc(OC)cc(OC)c6)cc5n4)cn3)CC2)C1 [Example 26, 1-(3-(4-(4-(7-((3,5-dimethoxyphenyl)amino)quinoxalin-2-yl)-1H-pyrazol-1-yl)piperidine-1-carbonyl)-3-hydroxyazetidin-1-yl)prop-2-en-1-one]
8 | 13 nM | 0.0107 min⁻¹ | 0.07246 min⁻¹ | 149 nM | 22 nM | C=CC(=O)N1CC(C#N)(C(=O)N2CCC(n3cc(-c4cnc5ccc(Nc6cc(OC)cc(OC)c6)cc5n4)cn3)CC2)C1 [Example 12, 1-acryloyl-3-(4-(4-(7-((3,5-dimethoxyphenyl)-amino)quinoxalin-2-yl)-1H-pyrazol-1-yl)-piperidine-1-carbonyl)-azetidine-3-carbonitrile]
9 | 10 nM | 0.00038 min⁻¹ | 0.00302 min⁻¹ | 852 nM | 207 nM | C=CC(=O)N1CC[C@@H](C(=O)N2CCC(n3cc(-c4cnc5ccc(Nc6cc(OC)cc(OC)c6)cc5n4)cn3)CC2)C1 [Example 2, (R)-1-(3-(4-(4-(7-((3,5-dimethoxyphenyl)amino)-quinoxalin-2-yl)-1H-pyrazol-1-yl)piperidine-1-carbonyl)pyrrolidin-1-yl)-prop-2-en-1-one]
10 | 9 nM | 0.00127 min⁻¹ | 0.00945 min⁻¹ | 507 nM | 44 nM | C=CC(=O)N1CC(C(=O)N2CCC(n3cc(-c4cnc5ccc(Nc6cc(OC)cc(OC)c6)cc5n4)cn3)CC2)C1 [Example 1, 1-(3-(4-(4-(7-((3,5-dimethoxyphenyl)amino)quinoxalin-2-yl)-1H-pyrazol-1-yl)piperidine-1-carbonyl)azetidin-1-yl)prop-2-en-1-one]
11 | 7 nM | 0.01822 min⁻¹ | 0.1473 min⁻¹ | 149 nM | 19 nM | COc1cc(Nc2ccc3ncc(-c4cnn(C5CCN(C(=O)C6(C#N)CN(C(=O)/C=C/CN(C)C)C6)CC5)c4)nc3c2)cc(OC)c1 [Example 11, (E)-3-(4-(4-(7-((3,5-dimethoxyphenyl)amino)-quinoxalin-2-yl)-1H-pyrazol-1-yl)piperidine-1-carbonyl)-1-(4-(dimethyl-amino)but-2-enoyl)-azetidine-3-carbonitrile]
